Results reported in patent US7666901B2, “Analogs of 17-hydroxywortmannin as PI3K inhibitors” (Wyeth, priority 2004, dated 2010).

What was measured:
[1] = test system: HER2/Neu-overexpressing MDA361-DYT2 breast tumor cells; assay: Tumor cell growth assay, HKI-272 and combination, MDA361-DYT2; format: cell-based, human; details: compound 4 at 0.1 μg/ml; MDA361-DYT2
Procedure: Human tumor cell are all obtained from ATCC, and are cultured using standard cell culture methods. Cells are plated in 96-well culture plates at 1000 to 3000 cells per well. One day following plating, cells are treated with various doses of PI3K inhibitor Compound 4 or Compound 5 alone or with a low constant dose of MEK inhibitor 2-(2-chloro-4-iodoanilino)-N-(cycloprorylmethoxy-3,4-difluobenzamide) (1 μg/ml) or UO126 (5 μg/ml). UO126 is also known as 1,4-diamino-2,3-dicyano-1,4-bis[2-aminophenylthio]butadiene. In some experiments, cells are treated alone with various doses of the MEK inhibitor (2-(2-chloro-4-iodoanilino)-N-(cycloprorylmethoxy-3,4-difluobenzamide)), or HER2/neu inhibitor HKI-272, or mTOR inhibitor CCI-779, or with a low constant dose of Compound 4 (0.1 μg/ml). […] Three days after drug treatment, viable cell densities are determined by metabolic conversion (by viable cells) of the dye MTS, an established cell proliferation assay. […] The MTS assay results are read in a 96-well plate reader by measuring absorbance at 490 nm. The effect of each treatment is calculated as percent of control growth relative to the vehicle DMSO-treated cells grown in the same culture plate. […]

[2] = molecular target: T1, Human TOR (Homo sapiens, UniProt P42345); assay: Human TOR (mTOR) kinase assay, DELFIA format; format: biochemical
T1 construct: FLAG
Outline: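 Purified FLAG-TOR (800 ng/mL) phosphorylates His6-S6K ([…]) with […] ATP in Hepes pH 7.4 buffer containing MnCl2, 2 h at room temperature. Phospho-Thr389 S6K detected by DELFIA using Europium-labelled anti-P(T389)-p70S6K antibody; enzyme inhibition calculated from signal.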

[3] = test system: HCT116 cells; assay: Apoptosis assay (Apo-ONE Caspase-3/7), HCT116; format: cell-based, human
Procedure: Cells are plated in a 96-well plate at a density of 3000 cells per well. 24 hr later cells are treated with single agent or combination as indicated. Apoptosis is measured at 24 hr and 48 hr post drug treatment by Apo-ONE Caspase-3/7 assay kit (cat # G7791, Promega Corp.) following the protocol provided by the vendor. Assay mix is added to cells and incubated at room temperature for 3 hours with gentle mixing using a plate shaker. The fluorescence of each well is read using the Victor Wallac Plate Reader. Each experimental plate contains blank wells (without cells) as background fluorescence that is subtracted from all wells to obtain experimental values. Data are expressed as relative fluorescent units (RFLU) or as Apo-ONE units.

[4] = test system: MDA435 (human breast adenocarcinoma); assay: Cell proliferation (MTS) assay, MDA435; format: cell-based; details: three days treatment
Outline: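 Cells plated at about 3000 per well in RPMI-1640/10% FBS were dosed with compound one day later. Viability was read by MTS conversion (absorbance 490 nm, 1–2 h) three days after treatment began. Effect is expressed as percent of vehicle-treated growth on the same plate.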

SMILES: COC[C@H]1OC(=O)/C(=C/N(CCO)C(C)(C)C)C2=C(O)C(=O)C3=C([C@H](OC(C)=O)C[C@@]4(C)C3CC[C@@H]4O)[C@]21C (stereo partly drawn) [Compound 4, (1E,4S,4aR,5R,6aS,7S)-1-{[tert-butyl(2-hydroxyethyl)amino]methylene}-7,11-dihydroxy-4-(methoxymethyl)-4a,6a-dimethyl-2,10-dioxo-1,2,4,4a,5,6,6a,7,8,9,9a,10-dodecahydroindeno[4,5-h]isochromen-5-yl acetate]
- growth inhibition in combination with HER2/neu inhibitor HKI-272 [1]: synergistically inhibited growth
- TOR IC50 ([2]; Table 1): 16 µg/mL
- TOR IC50 ([2]; Table 2): >10 µg/mL
- induction of apoptosis in combination with MEK inhibitor 2-(2-chloro-4-iodoanilino)-N-(cycloprorylmethoxy-3,4-difluobenzamide) [3]: synergistic induction of apoptosis
- MDA435 IC50 ([4]; Table 1): 6 µg/mL
- MDA435 IC50 ([4]; Table 2): 3.5 µg/mL
